Results reported in PMC6151660 (Molecules : A Journal of Synthetic Chemistry and Natural …, 2017).

Test system: M. tuberculosis moxifloxacin resistant mutants (G88C, A90V, D94G in gyrase A) and H37Rv
Format: cell-based, Mycobacterium tuberculosis

With `Cc1cc(=O)oc2cc(OCCN3CCN(Cc4ccc(Br)cc4)CC3)ccc12` [CM12] as the compound, how does the “activity in fluoroquinolone resistant strains” value read?
The value was “maintained potency in all evaluated strains”.

And the “growth inhibition compared with moxifloxacin” value?
The value was “growth inhibition in similar ranges to moxifloxacin”.

What does the source list for `Cc1c(C#N)c(=O)oc2cc(OCCN3CCN(Cc4ccc(Br)cc4)CC3)ccc12` [CM14]?
activity in fluoroquinolone resistant strains: maintained potency in all evaluated strains; growth inhibition compared with moxifloxacin: growth inhibition in similar ranges to moxifloxacin
